In patent US20260365655A1, “NEW USE OF JANUS KINASE (JAK)-DEGRADING AGENT BASED ON PROTEOLYSIS TARGETING CHIMERA (PROTAC)” (SHANGHAI SKIN DISEASE HOSPITAL, priority 2022, published 2026):
“And” between values parts separate entries of the source, which are not always exact repeats. Identical values can stand only once.

Columns and labels:
Type in all cases: in vivo, BALB/c mice
[1] = system: mouse ear eczema model (ear thickness); assay: Mouse ear eczema model: ear thickness; details: for Ear thickness, mean value: group mean; for Ear thickness: individual mice, two ears; for Ear thickness difference among Compound 1-, Compound 2-treating and positive drug groups / Ear thickness of model group versus treated groups: after the modeling; for Ear thickness of model group versus treated groups: result is for model group relative to the treated groups
Text: (§1) (1) Preparation method of a JAK-PROTAC cream: the same as in Example 1.
(§2) (2) Positive therapeutic drug: a 0.050% dexamethasone acetate cream (manufacturer: Shanghai Skin Disease Hospital).
(§3) (3) Blank matrix: a matrix component produced after the active ingredient JAK-PROTAC was removed from the cream.
(§4) (4) Molding agent: solution of calcipotriol in ethanol (manufacturer: MACKLIN).
(§5) (1) The mice were randomly divided into a blank control group (6 mice) (Control), a model group (6 mice) (Model), a positive drug group (6 mice) (Positive), a Compound 1-treating group (0.15% JAK-PROTAC cream 1 for external use) (6 mice) (Treat 1), and a Compound 2-treating group (0.15% JAK-PROTAC cream 2 for external use) (6 mice) (Treat 2).
(§6) (2) Molding was conducted in the following manner:
(§7) A. On day 0 to day 7 of the modeling: At 9 a.m., the blank control group was administered with the cream matrix, the model group was administered with the molding agent, the positive group was administered with the molding agent, the Compound 1-treating group was administered with the molding agent, and the Compound 2-treating group was administered with the molding agent. At 5 p.m., the blank control group was not treated, the model group was administered with the cream matrix, the positive group was administered with the dexamethasone acetate cream, the Compound 1-treating group was administered with the JAK-PROTAC cream 1, and the Compound 2-treating group was administered with the JAK-PROTAC cream 2.
as §7, with “B.” for “A.”, “8” for “0”, “10” for “7”, “modeling, at” for “modeling: At”, “not treated,” for “administered with the molding agent,”, “not treated.” for “administered with the molding agent.”
(§8) C. On day 11 of the modeling: At 9 a.m., the blank control group was administered with the cream matrix, the model group was not treated, the positive group was not treated, the Compound 1-treating group was not treated, and the Compound 2-treating group was not treated. At 1 p.m., the mice were sacrificed through cervical dislocation, and the spleen and two ears of each mouse were collected.
(2) A body weight and thicknesses of two ears of each mouse were recorded daily.
(§9) The data of the present disclosure was processed with the Excel and GraphPad software. The experimental data was tested by one-way ANOVA. The post-hoc multiple comparison was conducted with the least significant difference (LSD). P<0.05 indicated a significant difference.

[2] = system: mouse ear eczema model (atopic dermatitis); assay: Mouse ear eczema model (calcipotriol-induced): SCORAD of skin damage and overall therapeutic effect; details: 0.15% cream for external use; result is for model group relative to the treated groups
Text: as §1, §2, §3, §4, §5
(2) Molding was conducted in the following manner: […]
(1) The photographing was conducted every day. The severity of skin damage in an ear application region was evaluated through SCORAD for mice. […] Each symptom was scored as 0 to 3 depending on the severity of a skin damage: asymptomatic: 0, mild: 1, moderate: 2, and severe: 3. […]

[3] = system: serum thymic stromal lymphopoietin (TSLP); assay: Mouse ear eczema model: serum TSLP by enzyme-linked immunosorbent assay; details: for Serum TSLP content versus blank group: compared with the blank group; for Serum TSLP content versus model group: compared with the model group; for Reduction level of serum TSLP content versus positive group: compared with the positive group (dexamethasone acetate cream)
Text: as §1, §2, §3, §4, §5, §6, §7
as §7, with “B.” for “A.”, “8” for “0”, “10” for “7”, “modeling, at” for “modeling: At”, “not treated,” for “administered with the molding agent,”, “not treated.” for “administered with the molding agent.”
as §8
(4) The TSLP content in serum was detected by enzyme-linked immunosorbent assay.
as §9

[4] = Day0, cream for external use (JAK-PROTAC 0.15%, dexamethasone acetate 0.050%)
[5] = Day0 of modeling, cream for external use (JAK-PROTAC 0.15%, dexamethasone acetate 0.050%)

N#CC[C@H](C1CCCC1)n1cc(-c2nc(Nc3ccc(C(=O)NCCCCNc4cccc5c4C(=O)N(C4CCC(=O)NC4=O)C5=O)cc3)nc3[nH]ccc23)cn1 (stereo partly drawn) [Compound 1]
Ear thickness, mean value [1, 4]: 0.24 mm | Ear thickness [1, 5]: 0.23 mm (2×) and 0.24 mm (3×) and 0.26 mm and 0.25 mm (2×) | Ear thickness, mean value ([1]; Day 1): 0.27 mm | Ear thickness ([1]; Day 1): 0.26 mm (5×) and 0.29 mm and 0.28 mm and 0.27 mm | Ear thickness, mean value ([1]; Day2): 0.28 mm | Ear thickness ([1]; Day2): 0.30 mm (3×) and 0.27 mm (3×) and 0.28 mm and 0.24 mm | Ear thickness, mean value ([1]; Day3): 0.28 mm | Ear thickness ([1]; Day3): 0.30 mm and 0.31 mm and 0.26 mm and 0.28 mm and 0.27 mm (2×) and 0.29 mm and 0.24 mm | Ear thickness, mean value ([1]; Day4): 0.28 mm | Ear thickness ([1]; Day4): 0.27 mm (2×) and 0.33 mm and 0.31 mm and 0.30 mm and 0.25 mm (2×) and 0.28 mm | Ear thickness, mean value ([1]; Day5): 0.29 mm | Ear thickness ([1]; Day5): 0.32 mm (3×) and 0.29 mm and 0.28 mm (2×) and 0.30 mm and 0.24 mm | Ear thickness, mean value ([1]; Day6): 0.32 mm | Ear thickness ([1]; Day6): 0.34 mm and 0.35 mm (2×) and 0.36 mm and 0.31 mm and 0.30 mm and 0.25 mm and 0.33 mm | Ear thickness, mean value ([1]; Day7): 0.33 mm | Ear thickness ([1]; Day7): 0.33 mm (2×) and 0.32 mm and 0.37 mm and 0.35 mm and 0.36 mm and 0.26 mm and 0.34 mm | Ear thickness, mean value ([1]; Day8): 0.32 mm | Ear thickness ([1]; Day8): 0.30 mm and 0.33 mm and 0.32 mm (2×) and 0.35 mm and 0.37 mm and 0.24 mm and 0.34 mm | Ear thickness difference among Compound 1-, Compound 2-treating and positive drug groups [1]: no significant difference among the Compound 1- and Compound 2-treating groups and the positive drug group (P>0.05) | Ear thickness of model group versus treated groups [1]: significantly larger than ear thicknesses of the Compound 1- and Compound 2-treating groups, the positive drug group, and the blank control group (P<0.05) | Erythema, scale, and infiltration scores and total scores (SCORAD) of model group versus treated groups [2]: significantly higher than the respective scores in the Compound 1- and Compound 2-treating groups (P<0.05) | Serum TSLP content versus blank group [3]: increased compared with the blank group (P<0.01) | Serum TSLP content versus model group [3]: significantly reduced compared with the model group (P<0.01) | Reduction level of serum TSLP content versus positive group [3]: greater than a reduction level of a TSLP content in the positive group (P<0.01)

CCS(=O)(=O)N1CC(CC#N)(n2cc(-c3nc(Nc4ccc(C(=O)NCCCCNc5cccc6c5C(=O)N(C5CCC(=O)NC5=O)C6=O)cc4)nc4[nH]ccc34)cn2)C1 (stereo not drawn) [Compound 2]
Ear thickness, mean value [1, 4]: 0.22 mm | Ear thickness [1, 5]: 0.22 mm (3×) and 0.24 mm (2×) and 0.21 mm (3×) | Ear thickness, mean value ([1]; Day 1): 0.26 mm | Ear thickness ([1]; Day 1): 0.28 mm and 0.29 mm and 0.24 mm (2×) and 0.25 mm (3×) and 0.26 mm | Ear thickness, mean value ([1]; Day2): 0.25 mm | Ear thickness ([1]; Day2): 0.23 mm (3×) and 0.29 mm and 0.21 mm and 0.26 mm (2×) and 0.25 mm | Ear thickness, mean value ([1]; Day3): 0.26 mm | Ear thickness ([1]; Day3): 0.26 mm (5×) and 0.27 mm and 0.24 mm and 0.25 mm | Ear thickness, mean value ([1]; Day4): 0.27 mm | Ear thickness ([1]; Day4): 0.29 mm and 0.27 mm and 0.26 mm (2×) and 0.28 mm (2×) and 0.25 mm and 0.24 mm | Ear thickness, mean value ([1]; Day5): 0.29 mm | Ear thickness ([1]; Day5): 0.29 mm (3×) and 0.30 mm (2×) and 0.28 mm and 0.31 mm and 0.26 mm | Ear thickness, mean value ([1]; Day6): 0.32 mm | Ear thickness ([1]; Day6): 0.32 mm (2×) and 0.33 mm (2×) and 0.31 mm (2×) and 0.30 mm (2×) | Ear thickness, mean value ([1]; Day7): 0.35 mm | Ear thickness ([1]; Day7): 0.34 mm (2×) and 0.36 mm (5×) and 0.35 mm | Ear thickness, mean value ([1]; Day8): 0.35 mm | Ear thickness ([1]; Day8): 0.34 mm (4×) and 0.36 mm (2×) and 0.39 mm and 0.33 mm | Ear thickness difference among Compound 1-, Compound 2-treating and positive drug groups [1]: no significant difference among the Compound 1- and Compound 2-treating groups and the positive drug group (P>0.05) | Ear thickness of model group versus treated groups [1]: significantly larger than ear thicknesses of the Compound 1- and Compound 2-treating groups, the positive drug group, and the blank control group (P<0.05) | Erythema, scale, and infiltration scores and total scores (SCORAD) of model group versus treated groups [2]: significantly higher than the respective scores in the Compound 1- and Compound 2-treating groups (P<0.05) | Serum TSLP content versus blank group [3]: increased compared with the blank group (P<0.01) | Serum TSLP content versus model group [3]: significantly reduced compared with the model group (P<0.01) | Reduction level of serum TSLP content versus positive group [3]: greater than a reduction level of a TSLP content in the positive group (P<0.01)
